Assay results reported in ChEMBL document CHEMBL5576092, “Iron(III) Binding Properties of PF1140, a Fungal N-Hydroxypyridone, and Activity against Mycoplasma genitalium” (J Nat Prod, 2024).
Converted amounts (≈) assume the structure as drawn. Blank lines part the entries; values can stand above or below the molecule they belong to. The source made the active and inactive calls. The calls are words filed in the database; no cut-off is given here.

Experiments:
[1] = Selectivity index, ratio of IC50 for human HeLa cells to IC50 for Mycoplasma genitalium G37; assay type: toxicity; settings: read-out: Ratio IC50
[2] = Metal chelating activity assessed as compound-Cobalt complex formation by UV-Vis spectrophotometric analysis
Mycoplasma genitalium [3] = assay: Bacteriostatic activity against Mycoplasma genitalium G37 assessed as bacterial growth inhibition at 4 times MIC measured after 7 days by time-kill assay relative to control; assay type: functional, Mycoplasmoides genitalium; set-up: scale not given: the % may be the effect or the level left; settings: time 7 day
[4] = Metal chelating activity assessed as compound-copper complex formation by UV-Vis spectrophotometric analysis
Mycoplasma genitalium [5] = assay: Antibacterial activity against Mycoplasma genitalium Sea-1 assessed as bacterial growth inhibition incubated for 7 days by microbroth dilution assay; assay type: functional; settings: Mycoplasmoides genitalium, Sea-1, 168 h; time 7 day
Mycoplasma genitalium [6] = assay: Antibacterial activity against Mycoplasma genitalium Sea-2 assessed as bacterial growth inhibition by qPCR analysis; assay type: functional, organism-based; settings: Mycoplasmoides genitalium
Mycoplasma genitalium [7] = assay: Antibacterial activity against Mycoplasma genitalium M2282 assessed as bacterial growth inhibition incubated for 7 days by microbroth dilution assay; assay type: functional; settings: Mycoplasmoides genitalium, M2282, 168 h; time 7 day
Mycoplasma genitalium [8] = assay: Antibacterial activity against Mycoplasma genitalium assessed as bacterial growth inhibition in SP-4 broth medium supplemented with DPP at 0.08 to 0.64 uM measured after 2 hrs by absorbance based analysis; assay type: functional, organism-based; settings: Mycoplasmoides genitalium, dose 0.08-0.64 µM
Mycoplasma genitalium [9] = assay: Potentiation of hydrogen peroxide sensitivity in Mycoplasma genitalium assessed as reduction in bactericidal concentration of hydrogen peroxide at 0.32 uM measured after 7 days by checkerboard technique (reference value: 7 mM); assay type: functional, Mycoplasmoides genitalium; settings: time 7 day
Mycoplasma genitalium [10] = assay: Antibacterial activity against Mycoplasma genitalium G37 assessed as bacterial growth inhibition at 0.29 to 0.58 uM incubated for 7 days by time-kill assay; assay type: functional, organism-based; settings: Mycoplasmoides genitalium, dose 0.29-0.58 µM, time 7.0 day
[11] = Metal chelating activity assessed as compound-Fe3+ complex formation by UV-Vis spectrophotometric analysis
[12] = Metal chelating activity assessed as compound-magnesium complex formation by UV-Vis spectrophotometric analysis
Mycoplasma genitalium [13] = assay: Antibacterial activity against Mycoplasma genitalium at >0.3 uM; assay type: functional, organism-based; settings: Mycoplasmoides genitalium
Mycoplasma genitalium [14] = assay: Antibacterial activity against Mycoplasma genitalium G37 assessed as bacterial growth inhibition at 1.16 uM incubated for 7 days by time-kill assay relative to control; assay type: functional, Mycoplasmoides genitalium; set-up: scale not given: the % may be the effect or the level left; settings: time 7 day
Mycoplasma genitalium [15] = assay: Antibacterial activity against Mycoplasma genitalium assessed as bacterial growth inhibition in SP-4 broth medium supplemented with DPP and ferric chloride at 0.64 uM measured after 2 hrs by absorbance based analysis; assay type: functional, organism-based; settings: Mycoplasmoides genitalium
[16] = Selectivity index, ratio of IC50 for African green monkey Vero cells to IC50 for Mycoplasma genitalium G37; assay type: toxicity; settings: read-out: Ratio IC50
Mycoplasma genitalium [17] = assay: Antibacterial activity against Mycoplasma genitalium assessed as bacterial growth inhibition in SP-4 broth medium supplemented with TPEN at 0.64 uM measured after 2 hrs by absorbance based analysis; assay type: functional, organism-based; settings: Mycoplasmoides genitalium
Mycoplasma genitalium [18] = assay: Antibacterial activity against Mycoplasma genitalium at 0.28 to 1.12 measured after >1 month; assay type: functional, organism-based; settings: Mycoplasmoides genitalium; time > 1.0 months
Mycoplasma genitalium [19] = assay: Antibacterial activity against Mycoplasma genitalium Sea-2 assessed as bacterial growth inhibition incubated for 7 days by microbroth dilution assay; assay type: functional; settings: Mycoplasmoides genitalium, Sea-2, 168 h; time 7 day
Mycoplasma genitalium [20] = assay: Antibacterial activity against Mycoplasma genitalium assessed as bacterial growth inhibition in SP-4 broth medium supplemented with TPEN and zinc chloride at 0.64 uM measured after 2 hrs by absorbance based analysis; assay type: functional, organism-based; settings: Mycoplasmoides genitalium
Mycoplasma genitalium [21] = assay: Antibacterial activity against Mycoplasma genitalium G37 assessed as bacterial growth inhibition by qPCR analysis; assay type: functional, organism-based; settings: Mycoplasmoides genitalium
Mycoplasma genitalium [22] = assay: Antibacterial activity against Mycoplasma genitalium Sea-1 assessed as bacterial growth inhibition by qPCR analysis; assay type: functional, organism-based; settings: Mycoplasmoides genitalium
Mycoplasma genitalium [23] = assay: Antibacterial activity against Mycoplasma genitalium M2300 assessed as bacterial growth inhibition incubated for 7 days by microbroth dilution assay; assay type: functional; settings: Mycoplasmoides genitalium, M2300, 168 h; time 7 day
[24] = Metal chelating activity assessed as compound-Nickel complex formation by UV-Vis spectrophotometric analysis
Mycoplasma genitalium [25] = assay: Antibacterial activity against Mycoplasma genitalium G37 assessed as bacterial growth inhibition incubated for 7 days by microbroth dilution assay; assay type: functional; settings: Mycoplasmoides genitalium, G37, 168 h; time 7 day
[26] = Metal chelating activity assessed as compound-zinc complex formation by UV-Vis spectrophotometric analysis
[27] = Metal chelating activity assessed as compound-calcium complex formation by UV-Vis spectrophotometric analysis
[28] = Selectivity index, ratio of IC50 for human HepG2 cells to IC50 for Mycoplasma genitalium G37; assay type: toxicity; settings: read-out: Ratio IC50
[29] = Selectivity index, ratio of IC50 for human WIL-2N cells to IC50 for Mycoplasma genitalium G37; assay type: toxicity; settings: read-out: Ratio IC50
[30] = Metal chelating activity assessed as compound-manganese complex formation by UV-Vis spectrophotometric analysis

MIC (Mycoplasma genitalium [25]): > 80 µM
Compound: COn1ccc(O)c([C@@H]2[C@@H](C)C[C@@H](C)C[C@](C)(O)[C@H]2C)c1=O

MIC (Mycoplasma genitalium [25]): > 80 µM
Compound: C[C@@H]1C[C@H](C)[C@@H](c2c(O)cc[nH]c2=O)[C@H](C)[C@@](C)(O)C1 [DEOXYAKANTHOMYCIN]

The next lines start with the molecule.

Compound: C[C@@H]1C[C@H](C)[C@H]2c3c(ccn(O)c3=O)O[C@H](C)[C@@]2(C)C1
selectivity ratio [1]: > 32
Activity [2]: inactive
Activity (Mycoplasma genitalium [3]): >99.9%
Activity [4]: inactive
MIC (Mycoplasma genitalium [5]): 0.16 µM (≈ 0.0444 µg/mL)
IC50 (Mycoplasma genitalium [6]): 0.06 µM
IC90 (Mycoplasma genitalium [6]): 0.11 µM
MIC (Mycoplasma genitalium [7]): 0.16 µM (≈ 0.0444 µg/mL)
Activity (Mycoplasma genitalium [8]): inactive
Activity (Mycoplasma genitalium [9]): 1.8 mM
Activity (Mycoplasma genitalium [10]): Active
Activity [11]: Active
Activity [12]: inactive
Activity (Mycoplasma genitalium [13]): inactive
Activity (Mycoplasma genitalium [14]): 84.2%
Activity (Mycoplasma genitalium [15]): Active
selectivity ratio [16]: > 32
Activity (Mycoplasma genitalium [17]): inactive
Activity (Mycoplasma genitalium [18]): inactive
MIC (Mycoplasma genitalium [19]): 0.32 µM (≈ 0.0888 µg/mL)
Activity (Mycoplasma genitalium [20]): Active
IC50 (Mycoplasma genitalium [21]): 0.09 µM
IC90 (Mycoplasma genitalium [21]): 0.12 µM
IC50 (Mycoplasma genitalium [22]): 0.1 µM
IC90 (Mycoplasma genitalium [22]): 0.12 µM
MIC (Mycoplasma genitalium [23]): 0.16 µM (≈ 0.0444 µg/mL)
Activity [24]: inactive
MIC (Mycoplasma genitalium [25]): 0.32 µM (≈ 0.0888 µg/mL)
Activity [26]: inactive
Activity [27]: inactive
selectivity ratio [28]: > 32
selectivity ratio [29]: > 32
Activity [30]: inactive

Compound: COn1ccc2c(c1=O)[C@@H]1[C@@H](C)C[C@@H](C)C[C@]1(C)[C@@H](C)O2
MIC (Mycoplasma genitalium [25]): > 80 µM

Compound: C[C@@H]1C[C@H](C)[C@H]2c3c(cc[nH]c3=O)O[C@H](C)[C@@]2(C)C1
MIC (Mycoplasma genitalium [25]): > 80 µM

Compound: C=C[C@H]1C[C@@H](C)C[C@@H](C)[C@@H]1c1c(O)ccn(O)c1=O
MIC (Mycoplasma genitalium [25]): > 95 µM
